Data taken from ChEMBL document CHEMBL1133079, “Synthesis and antibacterial activity of novel 6-O-substituted erythromycin A derivatives” (2000).
Converted amounts (≈) assume the structure as drawn.

What was measured:
[1] = test system: Haemophilus influenzae; test: In vitro minimum inhibitory concentration against Haemophilus influenzae DILL using standard agar dilution method; type: functional
[2] = test system: Staphylococcus aureus; test: In vitro minimum inhibitory concentration against Staphylococcus aureus 6538P using standard agar dilution method; type: functional
[3] = test system: Staphylococcus aureus; test: In vitro minimum inhibitory concentration against Staphylococcus aureus A5177.; type: functional
[4] = test system: Streptococcus pneumoniae; test: In vitro minimum inhibitory concentration against Streptococcus pneumoniae 5649.; type: functional
[5] = test system: Streptococcus pneumoniae; test: In vitro minimum inhibitory concentration against Streptococcus pneumoniae 5737.; type: functional
[6] = test system: Streptococcus pneumoniae; test: In vitro minimum inhibitory concentration against Streptococcus pneumoniae ATCC 6303.; type: functional
[7] = test system: Streptococcus pyogenes; test: In vitro minimum inhibitory concentration against Streptococcus pyogenes 930 using standard agar dilution method; type: functional
[8] = test system: Streptococcus pyogenes; test: In vitro minimum inhibitory concentration against Streptococcus pyogenes EES61 using standard agar dilution method; type: functional
[9] = test system: Streptococcus pyogenes; test: In vitro minimum inhibitory concentration against Streptococcus pyogenes PIU 2548 using standard agar dilution method; type: functional
[10] = test system: Staphylococcus aureus; test: In vitro minimum inhibitory concentration against Staphylococcus aureus A5177 using standard agar dilution method; type: functional
[11] = test system: Staphylococcus aureus; test: In vitro minimum inhibitory concentration against Staphylococcus aureus 6538P using standard agar dilution method

SMILES | MIC [1] | MIC [2] | MIC [3] | MIC [4] | MIC [5] | MIC [6] | MIC [7] | MIC [8] | MIC [9] | MIC [10] | MIC [11]
CC[C@H]1OC(=O)[C@H](C)[C@@H](O[C@H]2C[C@@](C)(OC)[C@@H](O)[C@H](C)O2)[C@H](C)[C@@H](O[C@@H]2O[C@H](C)C[C@H](N(C)C)[C@H]2O)[C@@](C)(OC/C=C/c2ccccc2)C[C@@H](C)C(=O)[C@H](C)[C@@H](O)[C@]1(C)O | 4 µg/mL (≈ 4.71 µM) | 0.39 µg/mL (≈ 0.459 µM) | 6.2 µg/mL (≈ 7.29 µM) | 4 µg/mL (≈ 4.71 µM) | 32 µg/mL (≈ 37.6 µM) | 0.06 µg/mL (≈ 0.0706 µM) | 32 µg/mL (≈ 37.6 µM) | 0.03 µg/mL (≈ 0.0353 µM) | 16 µg/mL (≈ 18.8 µM) |  | 
CC[C@H]1OC(=O)[C@H](C)[C@@H](O[C@H]2C[C@@](C)(OC)[C@@H](O)[C@H](C)O2)[C@H](C)[C@@H](O[C@@H]2O[C@H](C)C[C@H](N(C)C)[C@H]2O)[C@@](C)(OCCNCc2ccccc2)C[C@@H](C)C(=O)[C@H](C)[C@@H](O)[C@]1(C)O | 8 µg/mL (≈ 9.23 µM) | 0.78 µg/mL (≈ 0.9 µM) | 12.5 µg/mL (≈ 14.4 µM) | 32 µg/mL (≈ 36.9 µM) | > 128 µg/mL | 0.125 µg/mL (≈ 0.144 µM) | > 128 µg/mL | 0.25 µg/mL (≈ 0.288 µM) | 64 µg/mL (≈ 73.8 µM) |  | 
CC[C@H]1OC(=O)[C@H](C)[C@@H](O[C@H]2C[C@@](C)(OC)[C@@H](O)[C@H](C)O2)[C@H](C)[C@@H](O[C@@H]2O[C@H](C)C[C@H](N(C)C)[C@H]2O)[C@@](C)(OCc2ccc(F)cc2)C[C@@H](C)C(=O)[C@H](C)[C@@H](O)[C@]1(C)O | 64 µg/mL (≈ 76 µM) | 3.1 µg/mL (≈ 3.68 µM) | 12.5 µg/mL (≈ 14.8 µM) | 8 µg/mL (≈ 9.5 µM) | 8 µg/mL (≈ 9.5 µM) | 1 µg/mL (≈ 1.19 µM) | 8 µg/mL (≈ 9.5 µM) | 1 µg/mL (≈ 1.19 µM) | 8 µg/mL (≈ 9.5 µM) |  | 
CC[C@H]1OC(=O)[C@H](C)[C@@H](O[C@H]2C[C@@](C)(OC)[C@@H](O)[C@H](C)O2)[C@H](C)[C@@H](O[C@@H]2O[C@H](C)C[C@H](N(C)C)[C@H]2O)[C@@](C)(OC/C=C/c2cnc3ccccc3c2)C[C@@H](C)C(=O)[C@H](C)[C@@H](O)[C@]1(C)O | 8 µg/mL (≈ 8.88 µM) | 0.2 µg/mL (≈ 0.222 µM) | 3.1 µg/mL (≈ 3.44 µM) | 4 µg/mL (≈ 4.44 µM) | 128 µg/mL (≈ 142 µM) | 0.06 µg/mL (≈ 0.0666 µM) | 64 µg/mL (≈ 71 µM) | 0.06 µg/mL (≈ 0.0666 µM) | 4 µg/mL (≈ 4.44 µM) |  | 
CC[C@H]1OC(=O)[C@H](C)[C@@H](O[C@H]2C[C@@](C)(OC)[C@@H](O)[C@H](C)O2)[C@H](C)[C@@H](O[C@@H]2O[C@H](C)C[C@H](N(C)C)[C@H]2O)[C@@](C)(OCCO)C[C@@H](C)C(=O)[C@H](C)[C@@H](O)[C@]1(C)O | 8 µg/mL (≈ 10.3 µM) | 0.39 µg/mL (≈ 0.501 µM) | 6.2 µg/mL (≈ 7.97 µM) | 32 µg/mL (≈ 41.1 µM) | > 64 µg/mL | 0.125 µg/mL (≈ 0.161 µM) | > 64 µg/mL | 0.125 µg/mL (≈ 0.161 µM) | 64 µg/mL (≈ 82.3 µM) |  | 
CC[C@H]1OC(=O)[C@H](C)[C@@H](O[C@H]2C[C@@](C)(OC)[C@@H](O)[C@H](C)O2)[C@H](C)[C@@H](O[C@@H]2O[C@H](C)C[C@H](N(C)C)[C@H]2O)[C@@](C)(OC/C=N/Nc2ccccn2)C[C@@H](C)C(=O)[C@H](C)[C@@H](O)[C@]1(C)O | 8 µg/mL (≈ 9.23 µM) | 0.78 µg/mL (≈ 0.9 µM) | 25 µg/mL (≈ 28.8 µM) | 64 µg/mL (≈ 73.8 µM) | > 128 µg/mL | 0.25 µg/mL (≈ 0.288 µM) | > 128 µg/mL | 0.125 µg/mL (≈ 0.144 µM) | 128 µg/mL (≈ 148 µM) |  | 
CC[C@H]1OC(=O)[C@H](C)[C@@H](O[C@H]2C[C@@](C)(OC)[C@@H](O)[C@H](C)O2)[C@H](C)[C@@H](O[C@@H]2O[C@H](C)C[C@H](N(C)C)[C@H]2O)[C@@](C)(OCC(O)CNCCc2ccccc2)C[C@@H](C)C(=O)[C@H](C)[C@@H](O)[C@]1(C)O (stereo partly specified) | 4 µg/mL (≈ 4.39 µM) | 0.2 µg/mL (≈ 0.219 µM) | 6.2 µg/mL (≈ 6.8 µM) | 32 µg/mL (≈ 35.1 µM) | 32 µg/mL (≈ 35.1 µM) | 0.008 µg/mL (≈ 0.00878 µM) | > 64 µg/mL | 0.03 µg/mL (≈ 0.0329 µM) | 16 µg/mL (≈ 17.6 µM) |  | 
CC[C@H]1OC(=O)[C@H](C)[C@@H](O[C@H]2C[C@@](C)(OC)[C@@H](O)[C@H](C)O2)[C@H](C)[C@@H](O[C@@H]2O[C@H](C)C[C@H](N(C)C)[C@H]2O)[C@@](C)(OC/C=C/c2cccc3ccccc23)C[C@@H](C)C(=O)[C@H](C)[C@@H](O)[C@]1(C)O | 4 µg/mL (≈ 4.44 µM) | 0.78 µg/mL (≈ 0.867 µM) | 12.5 µg/mL (≈ 13.9 µM) | 16 µg/mL (≈ 17.8 µM) | 8 µg/mL (≈ 8.89 µM) | 0.25 µg/mL (≈ 0.278 µM) | 8 µg/mL (≈ 8.89 µM) | 0.06 µg/mL (≈ 0.0667 µM) | 8 µg/mL (≈ 8.89 µM) |  | 
CC[C@H]1OC(=O)[C@H](C)[C@@H](O[C@H]2C[C@@](C)(OC)[C@@H](O)[C@H](C)O2)[C@H](C)[C@@H](O[C@@H]2O[C@H](C)C[C@H](N(C)C)[C@H]2O)[C@@](C)(OCCNCCCc2ccccc2)C[C@@H](C)C(=O)[C@H](C)[C@@H](O)[C@]1(C)O | 4 µg/mL (≈ 4.47 µM) | 0.05 µg/mL (≈ 0.0559 µM) | 3.1 µg/mL (≈ 3.46 µM) | 16 µg/mL (≈ 17.9 µM) | > 128 µg/mL | 0.03 µg/mL (≈ 0.0335 µM) | > 128 µg/mL | 0.03 µg/mL (≈ 0.0335 µM) | 32 µg/mL (≈ 35.7 µM) |  | 
CC[C@H]1OC(=O)[C@H](C)[C@@H](O[C@H]2C[C@@](C)(OC)[C@@H](O)[C@H](C)O2)[C@H](C)[C@@H](O[C@@H]2O[C@H](C)C[C@H](N(C)C)[C@H]2O)[C@@](C)(OC/C=N/OC)C[C@@H](C)C(=O)[C@H](C)[C@@H](O)[C@]1(C)O | 16 µg/mL (≈ 19.9 µM) | 0.78 µg/mL (≈ 0.969 µM) | 25 µg/mL (≈ 31.1 µM) | 32 µg/mL (≈ 39.8 µM) | > 128 µg/mL | 0.125 µg/mL (≈ 0.155 µM) | > 128 µg/mL | 0.125 µg/mL (≈ 0.155 µM) | 64 µg/mL (≈ 79.5 µM) |  | 
CC[C@H]1OC(=O)[C@H](C)[C@@H](O[C@H]2C[C@@](C)(OC)[C@@H](O)[C@H](C)O2)[C@H](C)[C@@H](O[C@@H]2O[C@H](C)C[C@H](N(C)C)[C@H]2O)[C@@](C)(OC/C=N/NC)C[C@@H](C)C(=O)[C@H](C)[C@@H](O)[C@]1(C)O | 8 µg/mL (≈ 9.95 µM) | 0.78 µg/mL (≈ 0.97 µM) | 25 µg/mL (≈ 31.1 µM) | 64 µg/mL (≈ 79.6 µM) | > 128 µg/mL | 0.125 µg/mL (≈ 0.155 µM) | > 128 µg/mL | 0.06 µg/mL (≈ 0.0746 µM) | 128 µg/mL (≈ 159 µM) |  | 
CCCO[C@@]1(C)C[C@@H](C)C(=O)[C@H](C)[C@@H](O)[C@](C)(O)[C@@H](CC)OC(=O)[C@H](C)[C@@H](O[C@H]2C[C@@](C)(OC)[C@@H](O)[C@H](C)O2)[C@H](C)[C@H]1O[C@@H]1O[C@H](C)C[C@H](N(C)C)[C@H]1O | 32 µg/mL (≈ 41.2 µM) |  |  |  |  |  | > 128 µg/mL | 0.05 µg/mL (≈ 0.0644 µM) | 64 µg/mL (≈ 82.5 µM) | 25 µg/mL (≈ 32.2 µM) | 3.1 µg/mL (≈ 3.99 µM)
CC[C@H]1OC(=O)[C@H](C)[C@@H](O[C@H]2C[C@@](C)(OC)[C@@H](O)[C@H](C)O2)[C@H](C)[C@@H](O[C@@H]2O[C@H](C)C[C@H](N(C)C)[C@H]2O)[C@@](C)(OCCNCCc2ccccc2)C[C@@H](C)C(=O)[C@H](C)[C@@H](O)[C@]1(C)O | 2 µg/mL (≈ 2.27 µM) | 0.2 µg/mL (≈ 0.227 µM) | 12.5 µg/mL (≈ 14.2 µM) | 4 µg/mL (≈ 4.54 µM) | 64 µg/mL (≈ 72.6 µM) | 0.03 µg/mL (≈ 0.034 µM) | 64 µg/mL (≈ 72.6 µM) | 0.015 µg/mL (≈ 0.017 µM) | 8 µg/mL (≈ 9.08 µM) |  | 
CC[C@H]1OC(=O)C(C)[C@@H](O[C@H]2C[C@@](C)(OC)[C@@H](O)[C@H](C)O2)[C@H](C)[C@@H](O[C@@H]2O[C@H](C)C[C@H](N(C)C)[C@H]2O)[C@@](C)(OC/C=N/Oc2ccccc2)C[C@@H](C)C(=O)[C@H](C)[C@@H](O)[C@]1(C)O (single isomer, unassigned) | 4 µg/mL (≈ 4.61 µM) | 0.2 µg/mL (≈ 0.231 µM) | 3.1 µg/mL (≈ 3.58 µM) | 16 µg/mL (≈ 18.5 µM) | 128 µg/mL (≈ 148 µM) | 0.008 µg/mL (≈ 0.00923 µM) | 128 µg/mL (≈ 148 µM) | 0.008 µg/mL (≈ 0.00923 µM) | 32 µg/mL (≈ 36.9 µM) |  | 
CC[C@H]1OC(=O)[C@H](C)[C@@H](O[C@H]2C[C@@](C)(OC)[C@@H](O)[C@H](C)O2)[C@H](C)[C@@H](O[C@@H]2O[C@H](C)C[C@H](N(C)C)[C@H]2O)[C@](C)(OC)C[C@@H](C)C(=O)[C@H](C)[C@@H](O)[C@]1(C)O [CLARITHROMYCIN] | 8 µg/mL (≈ 10.7 µM) | 0.2 µg/mL (≈ 0.267 µM) | 6.2 µg/mL (≈ 8.29 µM) | 16 µg/mL (≈ 21.4 µM) | > 128 µg/mL | 0.06 µg/mL (≈ 0.0802 µM) | > 128 µg/mL | 0.03 µg/mL (≈ 0.0401 µM) | 32 µg/mL (≈ 42.8 µM) |  | 
CC[C@H]1OC(=O)[C@H](C)[C@@H](O[C@H]2C[C@@](C)(OC)[C@@H](O)[C@H](C)O2)[C@H](C)[C@@H](O[C@@H]2O[C@H](C)C[C@H](N(C)C)[C@H]2O)[C@](C)(O)C[C@@H](C)C(=O)[C@H](C)[C@@H](O)[C@]1(C)O [ERYTHROMYCIN] | 4 µg/mL (≈ 5.45 µM) | 0.2 µg/mL (≈ 0.273 µM) | 6.2 µg/mL (≈ 8.45 µM) | 16 µg/mL (≈ 21.8 µM) | > 128 µg/mL | 0.06 µg/mL (≈ 0.0818 µM) | > 128 µg/mL | 0.03 µg/mL (≈ 0.0409 µM) | 32 µg/mL (≈ 43.6 µM) |  | 
